Some test systems named below: SR; SF-539; M14; OVCAR-8; NCI-H226; SN12C; Hs-578T; Malme-3M; SK-MEL-28; MDA-N; MOLT-4; SNB-19; OVCAR-4; SNB-75; ACHN; CAKI-1; A498; LOX IMVI.
What all share (assay): inhibition of tumour cell growth, NCI panel, 48 h

Consider 13 compounds from ChEMBL document CHEMBL1201862, “PubChem BioAssay data set” (2004).

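Cells were grown in 96-well plates and exposed to each compound for 48 hours at five concentrations; endpoints were interpolated linearly between bracketing concentrations, or set to the highest concentration if not reached. At the GI50, growth is halved.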 The source made the active and inactive calls. Rule as the data show it: active = GI50 up to about 1.1 µM and inactive = higher.

Take `CCNC1=C(NC(=O)c2ccccc2)C(=O)c2ccccc2C1=O`: the GI50 with SR was 40.2 µM (inactive); with SF-539, 48.8 µM (inactive); in the experiment on M14 it was 26.2 µM (inactive); in the experiment on OVCAR-8, 46.8 µM (inactive); with NCI-H226, 27.9 µM (inactive); with SN12C, 42.8 µM (inactive). The GI50 was 38.7 µM (inactive) in the experiment on Hs-578T; 16.8 µM (inactive) in the experiment with Malme-3M; 39.3 µM (inactive) in the experiment with SK-MEL-28; 4.9 µM (inactive) in the experiment on MDA-N; 63.4 µM (inactive) in the experiment with MOLT-4; 83.2 µM (inactive) with SNB-19. Further, the GI50 in the experiment with OVCAR-4 was 81.3 µM (inactive).
For the compound `CCCCCCCCCCCCCC(=O)O.O=CC(O)C(O)C(OC1OC(CO)C(O)C(O)C1O)C(O)CO` (configuration not stated), the GI50 in the experiment on SR is 1 µM (active); in the experiment with SF-539, > 100 µM (inactive); in the experiment on M14 it was > 100 µM (inactive); in the experiment on OVCAR-8, > 100 µM (inactive); with NCI-H226, 30.5 µM (inactive); in the experiment with SNB-75, > 100 µM (inactive). Also, the GI50 with ACHN was > 100 µM (inactive); in the experiment on SN12C, 80.4 µM (inactive); with CAKI-1, 71.6 µM (inactive); in the experiment with Hs-578T, > 100 µM (inactive); in the experiment on Malme-3M it was 83.8 µM (inactive); in the experiment with SK-MEL-28, > 100 µM (inactive). For the same compound, the GI50 in the experiment with A498, in the experiment with SNB-19 and with OVCAR-4 was > 100 µM (inactive) in each case.
With `CCCCCCCC/C=C/CCCCCCCC1CC(O)C(=O)O1` (configuration not stated), the GI50 was 27.7 µM (inactive) with SR; 41.4 µM (inactive) with M14; 55.1 µM (inactive) with OVCAR-8; > 100 µM (inactive) in the experiment on NCI-H226; 35.7 µM (inactive) in the experiment with SNB-75; 28.4 µM (inactive) with ACHN. The GI50 was 78.3 µM (inactive) in the experiment with LOX IMVI; > 10 µM (inactive) in the experiment with SN12C; 54.1 µM (inactive) in the experiment with Malme-3M; 72.3 µM (inactive) in the experiment with SK-MEL-28; 59.7 µM (inactive) with MDA-N; 32.9 µM (inactive) in the experiment with MOLT-4. The GI50 was 28.4 µM (inactive) with A498, 65.2 µM (inactive) in the experiment on SNB-19 and 43.2 µM (inactive) in the experiment on OVCAR-4.
For `Cc1cccc(Br)[n+]1[O-]`, the GI50 in the experiment with SR was > 100 µM (inactive); in the experiment with SF-539, > 100 µM (inactive); in the experiment on M14, > 100 µM (inactive); in the experiment with OVCAR-8, > 100 µM (inactive); in the experiment with NCI-H226, 96.4 µM (inactive); in the experiment on SNB-75, > 100 µM (inactive). Besides, the GI50 with ACHN is > 100 µM (inactive); with LOX IMVI, > 100 µM (inactive); in the experiment with SN12C, 97.1 µM (inactive); in the experiment on CAKI-1 it was > 100 µM (inactive); in the experiment with Hs-578T, > 100 µM (inactive); with Malme-3M, > 100 µM (inactive). In addition, the GI50 in the experiment on SK-MEL-28, in the experiment with MOLT-4, in the experiment with SNB-19 and in the experiment with OVCAR-4 was > 100 µM (inactive) throughout.
Regarding `O=c1c2c(sc3ccccc13)NCN(CCc1ccccc1)C2`, the GI50 with SR is 42.2 µM (inactive); with SF-539, 55.3 µM (inactive); in the experiment with M14, 27 µM (inactive); in the experiment with OVCAR-8, 28.7 µM (inactive); in the experiment with NCI-H226 it was 32 µM (inactive); in the experiment with SNB-75, 16.6 µM (inactive). Besides, the GI50 in the experiment on ACHN is 35.2 µM (inactive); in the experiment on LOX IMVI, 33.5 µM (inactive); in the experiment with SN12C, 41.8 µM (inactive); in the experiment on CAKI-1, 41.6 µM (inactive); in the experiment with Malme-3M it was 43.7 µM (inactive); with SK-MEL-28, 34.9 µM (inactive). Also, the GI50 in the experiment with MDA-N was 25.6 µM (inactive); with MOLT-4, 31.2 µM (inactive); in the experiment with A498, 67.9 µM (inactive); in the experiment on SNB-19, 30.8 µM (inactive); with OVCAR-4 it was 36.8 µM (inactive).
For `Fc1ccc(C2(CCCN3CCc4[nH]c5cc(F)ccc5c4C3)OCCO2)cc1`, the GI50 with SR is 7.52 µM (inactive); in the experiment with SF-539, 12 µM (inactive); in the experiment on M14, 2.53 µM (inactive); with OVCAR-8 it was 17.7 µM (inactive); in the experiment with NCI-H226, 19 µM (inactive); in the experiment on SNB-75 it was 12.1 µM (inactive). Further, the GI50 was 11.4 µM (inactive) in the experiment on ACHN; 12.6 µM (inactive) in the experiment on LOX IMVI; 16.7 µM (inactive) with SN12C; 3.92 µM (inactive) in the experiment with Hs-578T; 12.3 µM (inactive) in the experiment with Malme-3M; 12.6 µM (inactive) with SK-MEL-28. Moreover, the GI50 was 6.67 µM (inactive) in the experiment with MOLT-4, 14.3 µM (inactive) in the experiment with A498, 11.1 µM (inactive) with SNB-19 and 13.3 µM (inactive) in the experiment with OVCAR-4.
As to `O=C1CC2(CCNCC2)C(=O)N1N1CCCC1`, the GI50 in the experiment with SR, in the experiment with SF-539, with M14, in the experiment on OVCAR-8, in the experiment on NCI-H226 and in the experiment on ACHN was > 100 µM (inactive) throughout. Further, the GI50 in the experiment with LOX IMVI, with SN12C, in the experiment with CAKI-1, with Malme-3M, with MDA-N and with MOLT-4 was > 100 µM (inactive) throughout. For the same compound, in the experiment on SNB-19, the GI50 is > 100 µM (inactive).
On to `O=C(O)c1nc2ccc(C(F)(F)F)cc2nc1NCc1ccc(F)cc1`, for which the GI50 in the experiment on SR was 15.3 µM (inactive); in the experiment with SF-539 it was 20.1 µM (inactive); in the experiment with M14, 18.5 µM (inactive); with OVCAR-8, 21.5 µM (inactive); in the experiment with NCI-H226, 39.5 µM (inactive); in the experiment on SNB-75 it was 35.2 µM (inactive). In addition, the GI50 in the experiment with ACHN was 27.2 µM (inactive); in the experiment on LOX IMVI, 15.6 µM (inactive); in the experiment with SN12C, 17.5 µM (inactive); in the experiment on CAKI-1, 37.8 µM (inactive); in the experiment with SK-MEL-28, 40.8 µM (inactive); in the experiment on MDA-N, 28 µM (inactive). Further, the GI50 with MOLT-4 is 9.23 µM (inactive); in the experiment with A498, 23.7 µM (inactive); in the experiment with SNB-19, 24.5 µM (inactive); in the experiment with OVCAR-4, > 100 µM (inactive).
Turning to `Cc1n[nH]c(=O)n1/N=C/c1ccco1`, the GI50 in the experiment with SF-539, in the experiment on M14, with OVCAR-8, with NCI-H226, in the experiment on SNB-75 and in the experiment with ACHN was > 100 µM (inactive) each time. Besides, the GI50 in the experiment with SN12C, with CAKI-1, in the experiment with Hs-578T, in the experiment on Malme-3M, in the experiment on SK-MEL-28 and in the experiment with MOLT-4 was > 100 µM (inactive) each time. For the same compound, the GI50 in the experiment on A498, with SNB-19 and in the experiment with OVCAR-4 was > 100 µM (inactive) each time.
Regarding `COC(=O)C1=C(C(=O)OC)C2(c3ccccc3)c3ccccc3C(=O)C1N2C1CCCCC1` (configuration not stated), the GI50 in the experiment with SF-539 was 69.3 µM (inactive); in the experiment on M14, 43.3 µM (inactive); in the experiment on OVCAR-8, 60.4 µM (inactive); in the experiment on NCI-H226, 50.4 µM (inactive); with SNB-75, > 66.8 µM (inactive); in the experiment on ACHN, 29.2 µM (inactive). In addition, the GI50 was 22 µM (inactive) with LOX IMVI; 49.5 µM (inactive) with SN12C; 49.1 µM (inactive) in the experiment on CAKI-1; 40.9 µM (inactive) with Hs-578T; 58.2 µM (inactive) with Malme-3M; > 62.1 µM (inactive) in the experiment with SK-MEL-28. The GI50 was > 65 µM (inactive) with MDA-N; 6.61 µM (inactive) in the experiment with MOLT-4; > 66.1 µM (inactive) in the experiment on A498; > 63.4 µM (inactive) in the experiment on SNB-19; 58.2 µM (inactive) in the experiment with OVCAR-4.
Turning to `CC1(C)OCC(COC(=O)C=[N+]=[N-])O1` (configuration not stated), the GI50 in the experiment on SR, in the experiment on NCI-H226, in the experiment with ACHN, with LOX IMVI, with SN12C and with CAKI-1 was > 100 µM (inactive) throughout. Further, the GI50 in the experiment on Malme-3M, with SK-MEL-28, in the experiment on MDA-N, in the experiment on MOLT-4, in the experiment on A498 and in the experiment on SNB-19 was > 100 µM (inactive) throughout. The GI50 in the experiment with OVCAR-4 is > 100 µM (inactive).
Regarding `Cc1ccc(/C=C2\CN(C)CC3C(c4ccc(C)cc4)=C(C#N)C(=O)NC23)cc1` (configuration not stated), the GI50 in the experiment on M14, in the experiment with OVCAR-8, with NCI-H226, in the experiment on ACHN, with LOX IMVI and in the experiment with SN12C was > 50 µM (inactive) each time. For the same compound, the GI50 in the experiment on CAKI-1, with Hs-578T, in the experiment with Malme-3M, in the experiment on SK-MEL-28, in the experiment with MDA-N and with MOLT-4 was > 50 µM (inactive) throughout. For the same compound, the GI50 in the experiment with A498, in the experiment on SNB-19 and in the experiment on OVCAR-4 was > 50 µM (inactive) in each case.
As to `N=C(N)N/N=C/c1c(-c2ccccc2)nc2ccn3c(/C=N/N=C(N)N)c(-c4ccccc4)nc3n12`, the GI50 in the experiment on SF-539 is > 100 µM (inactive); in the experiment on M14, 49.3 µM (inactive); with OVCAR-8, 26.5 µM (inactive); in the experiment on NCI-H226, > 100 µM (inactive); with SNB-75, > 100 µM (inactive); with ACHN it was 21.8 µM (inactive). Also, the GI50 with LOX IMVI is 48.8 µM (inactive); in the experiment on SN12C it was 38.8 µM (inactive); in the experiment on CAKI-1 it was > 100 µM (inactive); with Hs-578T it was 39.5 µM (inactive); in the experiment with Malme-3M, 26.2 µM (inactive); in the experiment on SK-MEL-28, 39.5 µM (inactive). Also, the GI50 was > 100 µM (inactive) with MOLT-4, 46.8 µM (inactive) with A498, 20.3 µM (inactive) in the experiment with SNB-19 and > 100 µM (inactive) with OVCAR-4.
